{
  "source": "patent US9133115B2",
  "about": "(ACHILLION PHARMACEUTICALS, INC., priority 2008, dated 2015)",
  "data": [
    {"tested_on": "HCV replicon", "assay": "HCV replicon replication assay (NPT ELISA) in Huh-7 replicon-containing cells", "format": "cell-based", "conditions": "Hepatitis C virus, 72 h; HCV replicon in Huh-7 cells, three days incubation; read-out: EC50", "in_short": "(§1)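 Replication was scored by capture ELISA of neomycin phosphotransferase, whose level tracks replicon replication, after graded compound treatment. The cells were Huh-7 harbouring an HCV-IRES/neo/EMCV-IRES/NS3–NS5B/3′-NTR replicon, plated at 6000-7500 cells/well and dosed 24 h later at 60-70% confluence; interferon alpha was the positive control.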", "units": {"EC50": "nM"}, "values": [
      {"smiles": "C=C[C@@H]1C[C@]1(NC(=O)[C@@H]1C[C@@H](NC(=O)n2c3ccccc3c3ccccc32)CN1C(=O)[C@@H](CC(=O)N1CCC(F)(F)CC1)C(C)(C)C)C(=O)NS(=O)(=O)C1CC1", "note": "[Compound 187, N-((3R,5S)-1-((S)-2-tert-butyl-4-(4,4-difluoropiperidin-1-yl)-4-oxobutanoyl)-5-((1R,2S)-1-(cyclopropylsulfonyl-carbamoyl)-2-vinyl-cyclopropyl-carbamoyl)pyrrolidin-3-yl)-9H-carbazole-9-carboxamide]", "EC50": "< 1000"},
      {"smiles": "C=C[C@@H]1C[C@]1(NC(=O)[C@@H]1C[C@@H](NC(=O)n2c3ccccc3c3ccccc32)CN1C(=O)[C@@H](CC(=O)N1CCC(F)CC1)C(C)(C)C)C(=O)NS(=O)(=O)C1CC1", "note": "[Compound 189, N-((3R,5S)-1-((S)-2-tert-butyl-4-(4-fluoropiperidin-1-yl)-4-oxobutanoyl)-5-((1R,2S)-1-(cyclo-propylsulfonyl-carbamoyl)-2-vinylcyclopropyl-carbamoyl)pyrrolidin-3-yl)-9H-carbazole-9-carboxamide]", "EC50": "< 1000"},
      {"smiles": "C=C[C@@H]1C[C@]1(NC(=O)[C@@H]1C[C@@H](Oc2cc(-c3cccnc3)nc3c(C)c(OC)ccc23)CN1C(=O)[C@@H](CC(=O)N1CCCC(F)(F)C1)C(C)(C)C)C(=O)NS(=O)(=O)C1CC1", "note": "[Compound 252, (2S,4R)-1-((S)-2-tert-butyl-4-(3,3-difluoropiperidin-1-yl)-4-oxobutanoyl)-N-((2S)-1-(cyclopropyl-sulfonylcarbamoyl)-2-vinylcyclopropyl)-4-(7-methoxy-8-methyl-2-(pyridin-3-yl)quinolin-4-yloxy)pyrrolidine-2-carboxamide]", "EC50": "< 1000"},
      {"smiles": "C=C[C@@H]1C[C@]1(NC(=O)[C@@H]1C[C@@H](Oc2nc(-c3ccccc3)cc3cc(OC)ccc23)CN1C(=O)[C@@H](CC(=O)N1CCOCC1)C(C)(C)C)C(=O)NS(=O)(=O)C1CC1", "note": "[Compound 71, (2S,4R)-1-((S)-2-tert-butyl-4-morpholino-4-oxobutanoyl)-N-((1R,2S)-1-(cyclopropylsulfonyl-carbamoyl)-2-vinylcyclopropyl)-4-(6-methoxy-3-phenylisoquinolin-1-yloxy)pyrrolidine-2-carboxamide]", "EC50": "< 1000"},
      {"smiles": "C=C[C@@H]1C[C@]1(NC(=O)[C@@H]1C[C@@H](Oc2cc(-c3ccccc3)nc3cc(OC)ccc23)CN1C(=O)[C@@H](CC(=O)N1CC(F)(F)C1)C(C)(C)C)C(=O)NS(=O)(=O)C1CC1", "note": "[Compound 223, (2S,4R)-1-((S)-2-tert-butyl-4-(3,3-difluoroazetidin-1-yl)-4-oxobutanoyl)-N-((1R)-1-(cyclopropyl-sulfonylcarbamoyl)-2-vinylcyclopropyl)-4-(7-methoxy-2-phenylquinolin-4-yloxy)pyrrolidine-2-carboxamide]", "EC50": "< 1000"},
      {"smiles": "C=C[C@@H]1C[C@]1(NC(=O)[C@@H]1C[C@@H](Oc2cc(-c3ccccc3)nc3cc(OC)ccc23)CN1C(=O)[C@@H](CC(=O)N1CCCCC1)C(C)(C)C)C(=O)NS(=O)(=O)c1ccc(Cl)cc1", "note": "[Compound 67, (2S,4R)-1-((S)-2-tert-butyl-4-oxo-4-(piperidin-1-yl)butanoyl)-N-((1R,2S)-1-(4-chlorophenyl-sulfonylcarbamoyl)-2-vinylcyclopropyl)-4-(7-methoxy-2-phenylquinolin-4-yloxy)pyrrolidine-2-carboxamide]", "EC50": "< 1000"},
      {"smiles": "C=C[C@@H]1C[C@]1(NC(=O)[C@@H]1C[C@@H](Oc2cc(-c3ccccc3)nc3cc(OC)ccc23)CN1C(=O)[C@@H](CC(=O)N1CCCCC1)C(C)(C)C)C(=O)O", "note": "[Compound 210, (1R)-1-((2S,4R)-1-((S)-2-tert-butyl-4-oxo-4-(piperidin-1-yl)butanoyl)-4-(7-methoxy-2-phenylquinolin-4-yloxy)pyrrolidine-2-carboxamido)-2-vinylcyclopropane-carboxylic acid]", "EC50": "> 10000"},
      {"smiles": "C=CC1CC1(NC(=O)[C@@H]1C[C@@H](OC(=O)N2Cc3cccc(F)c3C2)CN1C(=O)[C@@H](CC(=O)N1CCCCC1)C(C)(C)C)C(=O)NS(=O)(=O)C1CC1", "note": "(stereo partly drawn) [Compound 50, (3R,5S)-1-((S)-2-tert-butyl-4-oxo-4-(piperidin-1-yl)butanoyl)-5-(1-(cyclopropyl-sulfonylcarbamoyl)-2-vinylcyclopropyl-carbamoyl)pyr-rolidin-3-yl 4-fluoroisoindoline-2-carboxylate]", "EC50": "< 1000"},
      {"smiles": "C=C[C@@H]1C[C@]1(NC(=O)[C@@H]1C[C@@H](Oc2cc(-c3ccccc3)nc3cc(OC)ccc23)CN1C(=O)[C@@H](CC(=O)N1CCC(N(C2CC2)S(=O)(=O)c2cccc(C(F)(F)F)c2)CC1)C(C)(C)C)C(=O)NS(=O)(=O)C1CC1", "note": "[Compound 175, (2S,4R)-1-((S)-2-tert-butyl-4-(4-(N-cyclopropyl-3-(tri-fluoromethyl)phenyl-sulfonamido)piper-idin-1-yl)-4-oxobutanoyl)-N-((1R,2S)-1-(cyclopropyl-sulfonylcarbamoyl)-2-vinylcyclopropyl)-4-(7-methoxy-2-phenylquinolin-4-yloxy)pyrrolidine-2-carboxamide]", "EC50": "< 1000"},
      {"smiles": "C=C[C@@H]1C[C@]1(NC(=O)[C@@H]1C[C@H](Oc2cc(-c3ccccc3)nc3cc(OC)ccc23)CN1C(=O)[C@@H](CC(=O)N1CCCCC1)C(C)(C)C)C(=O)NS(=O)(=O)C1CC1", "note": "[Compound 132, (2S,4S)-1-((S)-2-tert-butyl-4-oxo-4-(piperidin-1-yl)butanoyl)-N-((1R,2S)-1-(cyclo-propylsulfonyl-carbamoyl)-2-vinylcyclopropyl)-4-(7-methoxy-2-phenylquinolin-4-yloxy)pyrrolidine-2-carboxamide]", "EC50": "< 1000"},
      {"smiles": "C=C[C@@H]1C[C@]1(NC(=O)[C@@H]1C[C@@H](NC(=O)n2c3ccccc3c3ccccc32)CN1C(=O)[C@@H](CC(=O)N1CCCC(F)C1)C(C)(C)C)C(=O)NS(=O)(=O)C1CC1", "note": "(stereo partly drawn) [Compound 188, N-((3R,5S)-1-((2S)-2-tert-butyl-4-(3-fluoropiperidin-1-yl)-4-oxobutanoyl)-5-((1R,2S)-1-(cyclopropylsulfonyl-carbamoyl)-2-vinyl-cyclopropyl-carbamoyl)pyrrolidin-3-yl)-9H-carbazole-9-carboxamide]", "EC50": "< 1000"},
      {"smiles": "C=C[C@@H]1C[C@]1(NC(=O)[C@@H]1C[C@@H](OC(=O)N2c3ccccc3CCc3ccccc32)CN1C(=O)[C@@H](CC(=O)N1CCCCC1)C(C)(C)C)C(=O)NS(=O)(=O)C1CC1", "note": "[Compound 130, (3R,5S)-1-((S)-2-tert-butyl-4-oxo-4-(piperidin-1-yl)butanoyl)-5-((1R,2S)-1-(cyclo-propylsulfonyl-carbamoyl)-2-vinyl-cyclopropylcarbamo-yl)pyrrolidin-3-yl 10,11-dihydro-5H-dibenzo[b,f]azepine-5-carboxylate]", "EC50": "1000 to 10000"},
      {"smiles": "C=C[C@@H]1C[C@]1(NC(=O)[C@@H]1C[C@@H](Oc2cc(-c3nc(C(C)C)cs3)nc3c(C)c(OC)ccc23)CN1C(=O)[C@@H](CC(=O)N1CCCC(F)(F)C1)C(C)(C)C)C(=O)NS(=O)(=O)C1CC1", "note": "[Compound 248, (2S,4R)-1-((S)-2-tert-butyl-4-(3,3-difluoropiperidin-1-yl)-4-oxobutanoyl)-N-((2S)-1-(cyclopropyl-sulfonylcarbamoyl)-2-vinylcyclopropyl)-4-(2-(4-isopropylthiazol-2-yl)-7-methoxy-8-methylquinolin-4-yloxy)pyrrolidine-2-carboxamide]", "EC50": "< 1000"},
      {"smiles": "C=C[C@@H]1C[C@]1(NC(=O)[C@@H]1C[C@@H](NC(=O)c2cc(-c3ccccc3)nc3ccccc23)CN1C(=O)[C@@H](CC(=O)N1CCCCC1)C(C)(C)C)C(=O)NS(=O)(=O)C1CC1", "note": "[Compound 171, N-((3R,5S)-1-((S)-2-tert-butyl-4-oxo-4-(piperidin-1-yl)butanoyl)-5-((1R,2S)-1-(cyclopropyl-sulfonylcarbamoyl)-2-vinylcyclo-propylcarbamo-yl)pyrrolidin-3-yl)-2-phenylquinoline-4-carboxamide]", "EC50": "< 1000"},
      {"smiles": "C=C[C@@H]1C[C@]1(NC(=O)[C@@H]1C[C@@H](Oc2nc(-c3ccccn3)cc3c(Cl)c(OC)ccc23)CN1C(=O)[C@@H](CC(=O)N1CCCC(F)(F)C1)C(C)(C)C)C(=O)NS(=O)(=O)C1CC1", "note": "[Compound 244, (2S,4R)-1-((S)-2-tert-butyl-4-(3,3-difluoropiperidin-1-yl)-4-oxobutanoyl)-4-(5-chloro-6-methoxy-3-(pyridin-2-yl)isoquinolin-1-yloxy)-N-((2S)-1-(cyclopropyl-sulfonylcarbamoyl)-2-vinylcyclo-propyl)pyrrolidine-2-carboxamide]", "EC50": "< 1000"},
      {"smiles": "C=C[C@@H]1C[C@]1(NC(=O)[C@@H]1C[C@@H](Oc2cc(-c3ccccn3)nc3c4c(ccc23)CCC4)CN1C(=O)[C@@H](CC(=O)N1CCCC(F)(F)C1)C(C)(C)C)C(=O)NS(=O)(=O)C1CC1", "note": "[Compound 236, (2S,4R)-1-((S)-2-tert-butyl-4-(3,3-difluoropiperidin-1-yl)-4-oxobutanoyl)-N-((2S)-1-(cyclopropyl-sulfonylcarbamoyl)-2-vinylcyclopropyl)-4-(2-(pyridin-2-yl)-8,9-dihydro-7H-cyclopenta[h]quino-lin-4-yloxy)pyrrolidine-2-carboxamide]", "EC50": "< 1000"},
      {"smiles": "C=CC1C[C@]1(NC(=O)[C@@H]1C[C@@H](Oc2cc(-c3ccccc3)nc3cc(OC)ccc23)CN1C(=O)[C@@H](CC(=O)N1CCCCC1)c1ccccc1)C(=O)NS(=O)(=O)C1CC1", "note": "(stereo partly drawn) [Compound 59, (2S,4R)-N-((1R,2R)-1-(cyclopropyl-sulfonylcarbamoyl)-2-vinylcyclopropyl)-4-(7-methoxy-2-phenylquinolin-4-yloxy)-1-((S)-4-oxo-2-phenyl-4-(piperidin-1-yl)butanoyl)pyr-rolidine-2-carboxamide]", "EC50": "< 1000"},
      {"smiles": "C=C[C@@H]1C[C@@]1(NC(=O)[C@@H]1C[C@@H](Oc2cc(-c3ccccc3)nc3cc(OC)ccc23)CN1C(=O)[C@@H](CC(=O)N1CCCCC1)C(C)(C)C)C(=O)NS(=O)(=O)C1CC1", "note": "[Compound 38, (2S,4R)-1-((S)-2-tert-butyl-4-oxo-4-(piperidin-1-yl)butanoyl)-N-((1S,2S)-1-(cyclopropylsulfonyl-carbamoyl)-2-vinylcyclopropyl)-4-(7-methoxy-2-phenylquinolin-4-yloxy)pyrrolidine-2-carboxamide]", "EC50": "< 1000"}
    ]},
    {"tested_on": "HCV replicon", "assay": "HCV replicon replication assay (NPT ELISA) in Huh-7 replicon-containing cells", "format": "cell-based", "conditions": "Hepatitis C virus, Huh-7", "in_short": "as §1", "units": {"EC50": "nM"}, "values": [
      {"smiles": "C=C[C@@H]1C[C@@]1(NC(=O)[C@@H]1C[C@@H](Oc2cc(-c3ccccc3)nc3cc(OC)ccc23)CN1C(=O)[C@@H](CC(=O)N1CCCCC1)C(C)(C)C)C(=O)NS(=O)(=O)C1CC1", "note": "[Compound 38, (2S,4R)-1-((S)-2-tert-butyl-4-oxo-4-(piperidin-1-yl)butanoyl)-N-((1S,2S)-1-(cyclopropylsulfonyl-carbamoyl)-2-vinylcyclopropyl)-4-(7-methoxy-2-phenylquinolin-4-yloxy)pyrrolidine-2-carboxamide]", "EC50": "≤ 10000"}
    ]}
  ]
}
